According to US20140348819A1, “Methods of Treating Cancer” (Dana-Farber Cancer Institute, Inc., priority 2011, published 2014):

How the values were obtained:
pERK/pAKT = assay: High-throughput western analysis of pERK/pAKT re-activation by RTK ligands under BRAFi/MEKi; assay type: cell-based, human; settings: under BRAFi (PLX4720); after 1 hour of cytokine treatment; six V600E BRAF melanoma cell lines
Procedure: FIG. 23B is a western blot showing the activation of AKT (phosphorylated AKT, S473) after 1 hour and 24 hours after treatment with HGF, IGF-1 (IGF), and Insulin (INS) in the presence of BRAFi (PLX4720, 2 μM). FIG. 23C is a western blot showing the effect of HGF (25 ng/mL) on MAPK and PI3K/AKT pathway activation (pRAF1, pMEK, pERK, pAKT and pMET) in melanoma cell lines after 24 hours of treatment with 2 μM BRAFi (PLX4720) or 2 μM MEKi (PD184352).
To understand why, of all the RTKs tested, only HGF could induce such a unique primary resistance phenotype, a high-throughput western analysis was used to test the ability of all 22 RTK ligands to re-activate pERK/pAKT under BRAFi (PLX4720) treatment in six V600E BRAF melanoma cell lines. […] However, whereas the activation of both ERK and AKT by HGF under PLX4720 treatment was long lasting, the activation of either ERK or AKT by the above cytokines was only transient and thus could not confer resistance to the melanoma cell lines.

[1] = tested on: six V600E BRAF melanoma cell lines; assay: Screening of recombinant RTK ligands for ability to confer resistance to BRAFi (PLX4720) or MEKi (PD184352) (Table 4); assay type: cell-based, human; design: ability of recombinant RTK ligand to confer resistance / ability of recombinant RTK ligand to confer resistance (screening value): scale not given here
Outline: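 Six V600E BRAF melanoma lines treated with PLX4720 or PD184352 after addition of 22 recombinant RTK ligands, scored for drug resistance. Activation of selected RTKs confirmed by western blotting and high-throughput tyrosine kinase phosphorylation profiling.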

FGF-1: RTK ligand (FGFR), cytokine tested
re-activation of pERK/pAKT (pERK/pAKT): reactivate only ERK

SCF
ability of recombinant RTK ligand to confer resistance ([1]; A2058, PD184352 - 1 uM, ligand 0.4 ng/ml): 1.04 | ability of recombinant RTK ligand to confer resistance ([1]; A2058, PD184352 - 1 uM, ligand 1.6 ng/ml): 1.04 | ability of recombinant RTK ligand to confer resistance ([1]; A2058, PD184352 - 1 uM, ligand 6.25 ng/ml): 1.13 | ability of recombinant RTK ligand to confer resistance ([1]; A2058, PD184352 - 1 uM, ligand 25 ng/ml): 1.12 | ability of recombinant RTK ligand to confer resistance ([1]; A2058, PD184352 - 1 uM, ligand 100 ng/ml): 1.09 | ability of recombinant RTK ligand to confer resistance ([1]; A2058, PLX4720 - 2 uM, ligand 0.4 ng/ml): 1.04 | ability of recombinant RTK ligand to confer resistance ([1]; A2058, PLX4720 - 2 uM, ligand 1.6 ng/ml): 1.06 | ability of recombinant RTK ligand to confer resistance ([1]; A2058, PLX4720 - 2 uM, ligand 6.25 ng/ml): 1.07 | ability of recombinant RTK ligand to confer resistance ([1]; A2058, PLX4720 - 2 uM, ligand 25 ng/ml): 1.13 | ability of recombinant RTK ligand to confer resistance ([1]; A2058, PLX4720 - 2 uM, ligand 100 ng/ml): 1.08 | ability of recombinant RTK ligand to confer resistance ([1]; C32, PD184352 - 1 uM, ligand 0.4 ng/ml): 1.02 | ability of recombinant RTK ligand to confer resistance ([1]; C32, PD184352 - 1 uM, ligand 1.6 ng/ml): 1.05 | ability of recombinant RTK ligand to confer resistance ([1]; C32, PD184352 - 1 uM, ligand 6.25 ng/ml): 1.03 | ability of recombinant RTK ligand to confer resistance ([1]; C32, PD184352 - 1 uM, ligand 25 ng/ml): 1.04 | ability of recombinant RTK ligand to confer resistance ([1]; C32, PD184352 - 1 uM, ligand 100 ng/ml): 0.98 | ability of recombinant RTK ligand to confer resistance ([1]; C32, PLX4720 - 2 uM, ligand 0.4 ng/ml): 1.05 | ability of recombinant RTK ligand to confer resistance ([1]; C32, PLX4720 - 2 uM, ligand 1.6 ng/ml): 0.94 | ability of recombinant RTK ligand to confer resistance ([1]; C32, PLX4720 - 2 uM, ligand 6.25 ng/ml): 0.97 | ability of recombinant RTK ligand to confer resistance ([1]; C32, PLX4720 - 2 uM, ligand 25 ng/ml): 0.98 | ability of recombinant RTK ligand to confer resistance ([1]; C32, PLX4720 - 2 uM, ligand 100 ng/ml): 0.96 | ability of recombinant RTK ligand to confer resistance ([1]; Colo 829, PD184352 - 1 uM, ligand 0.4 ng/ml): 1.00 | ability of recombinant RTK ligand to confer resistance ([1]; Colo 829, PD184352 - 1 uM, ligand 1.6 ng/ml): 1.08 | ability of recombinant RTK ligand to confer resistance ([1]; Colo 829, PD184352 - 1 uM, ligand 6.25 ng/ml): 1.15 | ability of recombinant RTK ligand to confer resistance ([1]; Colo 829, PD184352 - 1 uM, ligand 25 ng/ml): 1.18 | ability of recombinant RTK ligand to confer resistance ([1]; Colo 829, PD184352 - 1 uM, ligand 100 ng/ml): 1.09 | ability of recombinant RTK ligand to confer resistance ([1]; Colo 829, PLX4720 - 2 uM, ligand 0.4 ng/ml): 0.96 | ability of recombinant RTK ligand to confer resistance ([1]; Colo 829, PLX4720 - 2 uM, ligand 1.6 ng/ml): 1.01 | ability of recombinant RTK ligand to confer resistance ([1]; Colo 829, PLX4720 - 2 uM, ligand 6.25 ng/ml): 1.06 | ability of recombinant RTK ligand to confer resistance ([1]; Colo 829, PLX4720 - 2 uM, ligand 25 ng/ml): 1.10 | ability of recombinant RTK ligand to confer resistance ([1]; Colo 829, PLX4720 - 2 uM, ligand 100 ng/ml): 1.04 | ability of recombinant RTK ligand to confer resistance ([1]; G-361, PD184352 - 1 uM, ligand 0.4 ng/ml): 1.06 | ability of recombinant RTK ligand to confer resistance ([1]; G-361, PD184352 - 1 uM, ligand 1.6 ng/ml): 0.99 | ability of recombinant RTK ligand to confer resistance ([1]; G-361, PD184352 - 1 uM, ligand 6.25 ng/ml): 1.06 | ability of recombinant RTK ligand to confer resistance ([1]; G-361, PD184352 - 1 uM, ligand 25 ng/ml): 1.13 | ability of recombinant RTK ligand to confer resistance ([1]; G-361, PD184352 - 1 uM, ligand 100 ng/ml): 1.07 | ability of recombinant RTK ligand to confer resistance ([1]; G-361, PLX4720 - 2 uM, ligand 0.4 ng/ml): 1.07 | ability of recombinant RTK ligand to confer resistance ([1]; G-361, PLX4720 - 2 uM, ligand 1.6 ng/ml): 1.03 | ability of recombinant RTK ligand to confer resistance ([1]; G-361, PLX4720 - 2 uM, ligand 6.25 ng/ml): 1.04 | ability of recombinant RTK ligand to confer resistance ([1]; G-361, PLX4720 - 2 uM, ligand 25 ng/ml): 1.12 | ability of recombinant RTK ligand to confer resistance ([1]; G-361, PLX4720 - 2 uM, ligand 100 ng/ml): 1.07 | ability of recombinant RTK ligand to confer resistance ([1]; SK-MEL-5, PD184352 - 1 uM, ligand 0.4 ng/ml): 0.97 | ability of recombinant RTK ligand to confer resistance ([1]; SK-MEL-5, PD184352 - 1 uM, ligand 1.6 ng/ml): 0.34 | ability of recombinant RTK ligand to confer resistance ([1]; SK-MEL-5, PD184352 - 1 uM, ligand 6.25 ng/ml): 1.02 | ability of recombinant RTK ligand to confer resistance ([1]; SK-MEL-5, PD184352 - 1 uM, ligand 25 ng/ml): 1.10 | ability of recombinant RTK ligand to confer resistance ([1]; SK-MEL-5, PD184352 - 1 uM, ligand 100 ng/ml): 1.12 | ability of recombinant RTK ligand to confer resistance ([1]; SK-MEL-5, PLX4720 - 2 uM, ligand 0.4 ng/ml): 0.90 | ability of recombinant RTK ligand to confer resistance ([1]; SK-MEL-5, PLX4720 - 2 uM, ligand 1.6 ng/ml): 8.91 | ability of recombinant RTK ligand to confer resistance ([1]; SK-MEL-5, PLX4720 - 2 uM, ligand 6.25 ng/ml): 0.96 | ability of recombinant RTK ligand to confer resistance ([1]; SK-MEL-5, PLX4720 - 2 uM, ligand 25 ng/ml): 1.00 | ability of recombinant RTK ligand to confer resistance ([1]; SK-MEL-5, PLX4720 - 2 uM, ligand 100 ng/ml): 1.09 | ability of recombinant RTK ligand to confer resistance ([1]; SK-MEL-28, PD184352 - 1 uM, ligand 0.4 ng/ml): 1.03 | ability of recombinant RTK ligand to confer resistance ([1]; SK-MEL-28, PD184352 - 1 uM, ligand 1.6 ng/ml): 0.94 | ability of recombinant RTK ligand to confer resistance ([1]; SK-MEL-28, PD184352 - 1 uM, ligand 6.25 ng/ml): 1.01 | ability of recombinant RTK ligand to confer resistance ([1]; SK-MEL-28, PD184352 - 1 uM, ligand 25 ng/ml): 1.06 | ability of recombinant RTK ligand to confer resistance ([1]; SK-MEL-28, PD184352 - 1 uM, ligand 100 ng/ml): 0.99 | ability of recombinant RTK ligand to confer resistance ([1]; SK-MEL-28, PLX4720 - 2 uM, ligand 0.4 ng/ml): 0.92 | ability of recombinant RTK ligand to confer resistance ([1]; SK-MEL-28, PLX4720 - 2 uM, ligand 1.6 ng/ml): 0.89 | ability of recombinant RTK ligand to confer resistance ([1]; SK-MEL-28, PLX4720 - 2 uM, ligand 6.25 ng/ml): 0.98 | ability of recombinant RTK ligand to confer resistance ([1]; SK-MEL-28, PLX4720 - 2 uM, ligand 25 ng/ml): 0.92 | ability of recombinant RTK ligand to confer resistance ([1]; SK-MEL-28, PLX4720 - 2 uM, ligand 100 ng/ml): 0.98
